Measured values as given in patent publication US8513233B2, “Pyrimidinyl-propionic acid derivatives and their use as PPAR agonists” (Shanghai Institute of Materia Medica, CAS, priority 2007, dated 2013).

How the values were obtained:
MCF-7 = test: Growth inhibition, modified MTT assay, MCF-7; assay type: cell-based; settings: Homo sapiens, MCF7; MCF-7, MTT, mean of 3 independent tests
Description: (§1) The growth inhibition was evaluated by the modified MTT assay. Briefly, the cells were seeded at 1×10^4 cells/well in 96-well plates (Falcon, Calif., USA), and incubated for 24 h in […] culture media with 10% FCS. The media were then replaced by serum-free medium. After 24 h, the media were placed in triplicate with grade concentrations of compounds. As controls, the cells were cultivated in DMEM/F12 only. The cells were then treated by MTT (Sigma, USA) assay, […] (5 g/L) for 4 h. After the removal of the supernatant, the purple-blue sediment was dissolved in 100 μL/well DMSO, and the optical densities were read on the multi-well scanning spectrophotometer (Labsystems Dragon, Finland) at 492 nm (A492). The growth inhibition rate (GIR) of the treated cells was calculated using Equation: GIR(%)={1−[A490/A490(control)]}×100% The results were also converted to IC50 (the compound concentration required for 50% growth inhibition of tumor cells), which were calculated by using the sigmoidal fitting model by the Origin 7.0 software (OriginLab, Northampton, Mass., USA). The mean IC50 was determined from the results of 3 independent tests.

SPC-A1 = test: Growth inhibition, modified MTT assay, SPC-A1; assay type: cell-based; settings: SPCA1, mean of 3 independent tests
Description: as §1

T24 = test: Growth inhibition, modified MTT assay, T24; assay type: cell-based; settings: Homo sapiens, T-24, mean of 3 independent tests
Description: as §1

HepG2 = test: Growth inhibition, modified MTT assay, HepG2; assay type: cell-based; settings: Homo sapiens, mean of 3 independent tests
Description: as §1

| IC50 (MCF-7) [µM] | melting point [°C] | IC50 (T24) [µM] | IC50 (HepG2) [µM] | SMILES | IC50 (SPC-A1) [µM] |
| --- | --- | --- | --- | --- | --- |
| 45.2 | 137 to 138 | > 50 | > 50 | CC(Cc1ccc(Oc2cc(N3CCN(Cc4ccncc4)CC3)nc(N)n2)cc1)(Oc1ccccc1)C(=O)O (stereo not drawn) [Compound 40, 3-{4-[2-Amino-6-(4-pyridin-4-ylmethyl-piperazin-1-yl)-pyrimidin-4-yloxy]-phenyl}-2-methyl-2-phenoxy-propionic acid] | 46.5 |
| 38.8 | 141 to 143 | > 50 | > 50 | CC(Cc1ccc(Oc2cc(N3CCN(Cc4cccnc4)CC3)nc(N)n2)cc1)(Oc1ccccc1)C(=O)O (stereo not drawn) [Compound 39, 3-{4-[2-Amino-6-(4-pyridin-3-ylmethyl-piperazin-1-yl)-pyrimidin-4-yloxy]-phenyl}-2-methyl-2-ph enoxy-propionic acid] | 43.5 |
| 45.3 | 160 to 162 | 40.3 | > 50 | CC(Cc1ccc(Oc2cc(N3CCN(Cc4ccc([N+](=O)[O-])cc4)CC3)nc(N)n2)cc1)(Oc1ccccc1)C(=O)O (stereo not drawn) [Compound 38, 3-{4-{2-Amino-6-[4-(4-nitro-benzyl)-piperazin-1-yl]-pyrimidin-4-yloxy}-phenyl}-2-methyl-2-phenoxy-propionic acid] | > 50 |
